Results as given in PubChem BioAssay (NCI).
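How tested: cells in 96-well plates exposed to compound for 48 hours at five concentrations. GI50 is the concentration that inhibits growth by half. At the TGI there is no net growth.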

Tests used:
Experiment in all cases: NCI anticancer screen, dose series, 48 h
[1] = test system: A549 NSCLC
[2] = test system: NCI/ADR-RES ovarian
[3] = test system: HS 578T breast
[4] = test system: OVCAR-5 ovarian
[5] = test system: T-47D breast
[6] = test system: CAKI-1 renal
[7] = test system: HCT-15 colon
[8] = test system: NCI-H522 lung
[9] = test system: UACC-62 melanoma
[10] = test system: OVCAR-4 ovarian

Row | SMILES | GI50 [1] | TGI [1] | GI50 [2] | TGI [2] | GI50 [3] | TGI [3] | GI50 [4] | TGI [4] | GI50 [5] | TGI [5] | GI50 [6] | TGI [6] | GI50 [7] | TGI [7] | GI50 [8] | TGI [8] | GI50 [9] | TGI [9] | GI50 [10] | TGI [10]
1 | C=C1CCC2C3(C)COC(c4ccc(NC(C)=O)cc4)OC3CCC2(C)C1C/C=C1/C(=O)OCC1O (stereo not given) | 5.03 µM | > 100 µM | 7.37 µM | > 100 µM | > 100 µM | > 100 µM | > 100 µM | > 100 µM | 2.53 µM | > 100 µM | 4.71 µM | > 100 µM | 9.58 µM | > 100 µM | 4.53 µM | > 100 µM | > 100 µM | > 100 µM | 6.81 µM | > 100 µM
2 | O=C(c1ccccc1)C1C(C(=O)c2ccccc2)N1Cc1ccccc1 (stereo not given) | – | > 100 µM | – | > 100 µM | – | > 100 µM | – | > 100 µM | – | 49.8 µM | – | > 100 µM | – | > 100 µM | – | 74.6 µM | – | 70.8 µM | – | > 100 µM
3 | CCOC1OCCCC1Br (stereo not given) | – | > 100 µM | – | > 100 µM | – | > 100 µM | – | > 100 µM | – | > 100 µM | – | > 100 µM | – | > 100 µM | – | > 100 µM | – | > 100 µM | – | > 100 µM
4 | COc1ccccc1/C=C\c1cnnc2ccccc12 | – | > 10 µM | – | > 10 µM | – | > 10 µM | – | > 10 µM | – | > 10 µM | – | > 10 µM | – | > 10 µM | – | > 10 µM | – | > 10 µM | – | > 10 µM
5 | S=c1nc(-c2ccccc2)oc(=NC2CCCCC2)n1C1CCCCC1 | 2.26 µM | 8.21 µM | 5.01 µM | 23.4 µM | 3.3 µM | 14.5 µM | 8.54 µM | 30.3 µM | 3.85 µM | 21.4 µM | 1.99 µM | 6.38 µM | 3.35 µM | 13.5 µM | 4.8 µM | 18.3 µM | 5.92 µM | 21 µM | 5.56 µM | 61 µM
6 | COc1ccc(N2CCN(C(=O)c3ccccc3Nc3ccnc(C(F)(F)F)c3)CC2)cc1 | 61.5 µM | > 100 µM | 23.8 µM | > 100 µM | 60.6 µM | > 100 µM | > 100 µM | > 100 µM | 9.23 µM | 96.7 µM | 48.8 µM | > 100 µM | > 100 µM | > 100 µM | 18.1 µM | > 100 µM | 30.9 µM | > 100 µM | 22.4 µM | > 100 µM
7 | CC1(C)CCC[C@]23C(=O)O[C@](O)(C(=O)C4=C[C@@](C)(/C=C/CCCc5ccc6ccc7cccc8ccc5c6c78)CC[C@@]42O)[C@@H]13 | 0.202 µM | 0.678 µM | 0.221 µM | 0.532 µM | 0.251 µM | 0.812 µM | 0.187 µM | 0.376 µM | 0.167 µM | 0.422 µM | 0.183 µM | 0.364 µM | 0.148 µM | 0.425 µM | 0.2 µM | 0.475 µM | 0.176 µM | 0.343 µM | 0.259 µM | 0.616 µM
8 | O=c1[nH]cc(CS(=O)(=O)Cc2c[nH]c(=O)[nH]c2=O)c(=O)[nH]1 | – | > 100 µM | – | > 100 µM | – | > 100 µM | – | > 100 µM | – | > 100 µM | – | > 100 µM | – | > 100 µM | – | > 100 µM | – | > 100 µM | – | > 100 µM
